ChEMBL document CHEMBL4507268 (2021)

Key:
[1] = molecular target: Ankyrin repeat and protein kinase domain-containing protein 1 (Homo sapiens) (UniProt Q8NFD2); details: Compound concentration 1000.0 nM
[2] = molecular target: T1, MAP kinase-activated protein kinase 5 (Homo sapiens) (UniProt Q8IW41); details: Compound concentration 1000.0 nM
T1 sequence (whole entry): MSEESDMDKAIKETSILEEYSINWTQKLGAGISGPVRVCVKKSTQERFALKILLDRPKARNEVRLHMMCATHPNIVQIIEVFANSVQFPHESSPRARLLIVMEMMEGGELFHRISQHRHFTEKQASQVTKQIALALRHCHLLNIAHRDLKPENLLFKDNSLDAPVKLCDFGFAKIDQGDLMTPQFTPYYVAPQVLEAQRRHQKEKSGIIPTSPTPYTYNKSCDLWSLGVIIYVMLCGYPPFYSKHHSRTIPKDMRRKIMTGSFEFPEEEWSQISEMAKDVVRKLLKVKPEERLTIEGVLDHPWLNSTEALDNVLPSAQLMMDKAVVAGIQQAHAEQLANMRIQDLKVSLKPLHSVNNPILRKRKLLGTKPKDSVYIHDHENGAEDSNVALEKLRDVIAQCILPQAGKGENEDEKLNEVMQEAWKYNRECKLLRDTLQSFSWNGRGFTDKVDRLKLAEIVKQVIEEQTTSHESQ

[3] = molecular target: LIM domain kinase 1 (Homo sapiens) (UniProt P53667); details: Compound concentration 1000.0 nM
[4] = molecular target: Phosphatidylinositol 5-phosphate 4-kinase type-2 gamma (Homo sapiens) (UniProt Q8TBX8); details: Compound concentration 1000.0 nM
[5] = molecular target: Serine/threonine-protein kinase RIO1 (Homo sapiens) (UniProt Q9BRS2); details: Compound concentration 1000.0 nM
[6] = test system: eIF-2-alpha kinase GCN2 (Homo sapiens), Q9P2K8 [S808G]; details: Compound concentration 1000.0 nM
[7] = molecular target: Interferon-induced, double-stranded RNA-activated protein kinase (Homo sapiens) (UniProt P19525); details: Compound concentration 1000.0 nM
[8] = molecular target: Muscarinic acetylcholine receptor M3 (Homo sapiens) (UniProt P20309); details: Compound concentration 10.0 uM
[9] = molecular target: Mitogen-activated protein kinase kinase kinase 6 (Homo sapiens) (UniProt O95382); details: Compound concentration 1000.0 nM
[10] = molecular target: Phosphatidylinositol 3-kinase catalytic subunit type 3 (Homo sapiens) (UniProt Q8NEB9); details: Compound concentration 1000.0 nM
[11] = molecular target: T2, Serine/threonine-protein kinase ULK3 (Homo sapiens) (UniProt Q6PHR2); details: Compound concentration 1000.0 nM
T2 sequence (whole entry): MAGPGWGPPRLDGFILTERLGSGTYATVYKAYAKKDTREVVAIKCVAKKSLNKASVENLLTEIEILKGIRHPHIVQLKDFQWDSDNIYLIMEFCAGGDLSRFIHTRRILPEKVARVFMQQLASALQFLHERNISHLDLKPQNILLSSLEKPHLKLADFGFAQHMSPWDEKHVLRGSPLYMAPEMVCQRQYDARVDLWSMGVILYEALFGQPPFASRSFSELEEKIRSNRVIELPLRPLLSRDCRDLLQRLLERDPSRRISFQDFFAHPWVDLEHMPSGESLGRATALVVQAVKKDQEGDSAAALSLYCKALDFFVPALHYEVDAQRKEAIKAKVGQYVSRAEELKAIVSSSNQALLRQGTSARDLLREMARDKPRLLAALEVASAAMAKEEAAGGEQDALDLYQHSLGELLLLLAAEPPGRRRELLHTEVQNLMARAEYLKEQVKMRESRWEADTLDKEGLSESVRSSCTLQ

[12] = molecular target: SRSF protein kinase 2 (Homo sapiens) (UniProt P78362); details: Compound concentration 1000.0 nM
[13] = molecular target: Tyrosine-protein kinase Srms (Homo sapiens) (UniProt Q9H3Y6); details: Compound concentration 1000.0 nM
[14] = molecular target: Sigma non-opioid intracellular receptor 1 (Homo sapiens, UniProt Q99720); details: Compound concentration 10.0 uM
[15] = molecular target: Ribosomal protein S6 kinase alpha-1 (Homo sapiens) (UniProt Q15418); details: Compound concentration 1000.0 nM
[16] = molecular target: 5-hydroxytryptamine receptor 1E (Homo sapiens) (UniProt P28566); details: Compound concentration 10.0 uM
[17] = molecular target: Mitogen-activated protein kinase kinase kinase kinase 1 (Homo sapiens) (UniProt Q92918); details: Compound concentration 1000.0 nM
[18] = molecular target: Alpha-1B adrenergic receptor (Homo sapiens) (UniProt P35368); details: Compound concentration 10.0 uM
[19] = molecular target: Ribosomal protein S6 kinase alpha-3 (Homo sapiens) (UniProt P51812); details: Compound concentration 1000.0 nM
[20] = molecular target: Serine/threonine-protein kinase Nek10 (Homo sapiens) (UniProt Q6ZWH5); details: Compound concentration 1000.0 nM
[21] = molecular target: Cyclin-dependent kinase-like 5 (Homo sapiens) (UniProt O76039); details: Compound concentration 1000.0 nM
[22] = molecular target: TGF-beta receptor type-2 (Homo sapiens) (UniProt P37173); details: Compound concentration 1000.0 nM
[23] = molecular target: Receptor tyrosine-protein kinase erbB-4 (Homo sapiens) (UniProt Q15303); details: Compound concentration 1000.0 nM
[24] = molecular target: T3, Mitogen-activated protein kinase kinase kinase 2 (Homo sapiens) (UniProt Q9Y2U5); details: Compound concentration 1000.0 nM
T3 sequence (whole entry): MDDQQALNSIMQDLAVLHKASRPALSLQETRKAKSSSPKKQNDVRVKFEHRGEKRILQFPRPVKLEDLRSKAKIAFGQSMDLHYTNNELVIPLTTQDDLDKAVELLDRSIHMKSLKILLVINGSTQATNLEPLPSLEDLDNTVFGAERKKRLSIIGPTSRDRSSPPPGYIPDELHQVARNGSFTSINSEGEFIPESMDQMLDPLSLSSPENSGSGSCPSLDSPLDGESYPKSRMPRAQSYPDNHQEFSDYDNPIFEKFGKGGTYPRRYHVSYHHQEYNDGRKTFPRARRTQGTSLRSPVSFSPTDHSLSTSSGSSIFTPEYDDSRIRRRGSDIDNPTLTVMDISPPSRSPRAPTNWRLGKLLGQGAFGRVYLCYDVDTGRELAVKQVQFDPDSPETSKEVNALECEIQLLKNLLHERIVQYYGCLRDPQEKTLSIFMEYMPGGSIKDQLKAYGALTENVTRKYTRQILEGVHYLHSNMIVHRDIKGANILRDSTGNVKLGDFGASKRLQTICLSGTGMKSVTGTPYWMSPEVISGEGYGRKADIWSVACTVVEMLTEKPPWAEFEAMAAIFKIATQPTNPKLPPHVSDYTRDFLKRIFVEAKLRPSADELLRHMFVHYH

Chain of Ribosomal protein S6 kinase alpha-1 (Homo sapiens) (Q15418 whole entry): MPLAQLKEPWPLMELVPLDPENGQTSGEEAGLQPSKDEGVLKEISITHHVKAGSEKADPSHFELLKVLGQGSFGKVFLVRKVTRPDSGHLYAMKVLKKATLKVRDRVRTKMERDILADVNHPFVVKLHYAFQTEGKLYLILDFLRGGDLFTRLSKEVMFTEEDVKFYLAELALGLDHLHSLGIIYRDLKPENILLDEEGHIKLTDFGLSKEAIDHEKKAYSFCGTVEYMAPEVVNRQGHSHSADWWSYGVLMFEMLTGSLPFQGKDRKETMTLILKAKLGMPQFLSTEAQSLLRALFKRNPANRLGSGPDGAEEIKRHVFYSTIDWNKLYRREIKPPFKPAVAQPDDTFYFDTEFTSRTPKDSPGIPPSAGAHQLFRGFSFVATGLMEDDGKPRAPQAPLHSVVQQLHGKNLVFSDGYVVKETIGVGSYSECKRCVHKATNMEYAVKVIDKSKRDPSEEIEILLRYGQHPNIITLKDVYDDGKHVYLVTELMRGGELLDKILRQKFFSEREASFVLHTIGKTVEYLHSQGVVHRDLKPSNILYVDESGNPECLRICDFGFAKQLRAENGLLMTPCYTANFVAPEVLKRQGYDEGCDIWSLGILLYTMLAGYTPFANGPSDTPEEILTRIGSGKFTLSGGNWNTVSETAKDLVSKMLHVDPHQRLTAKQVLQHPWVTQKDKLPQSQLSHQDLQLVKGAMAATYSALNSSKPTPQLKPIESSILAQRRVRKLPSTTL
Chain of Interferon-induced, double-stranded RNA-activated protein kinase (Homo sapiens) (P19525 whole entry): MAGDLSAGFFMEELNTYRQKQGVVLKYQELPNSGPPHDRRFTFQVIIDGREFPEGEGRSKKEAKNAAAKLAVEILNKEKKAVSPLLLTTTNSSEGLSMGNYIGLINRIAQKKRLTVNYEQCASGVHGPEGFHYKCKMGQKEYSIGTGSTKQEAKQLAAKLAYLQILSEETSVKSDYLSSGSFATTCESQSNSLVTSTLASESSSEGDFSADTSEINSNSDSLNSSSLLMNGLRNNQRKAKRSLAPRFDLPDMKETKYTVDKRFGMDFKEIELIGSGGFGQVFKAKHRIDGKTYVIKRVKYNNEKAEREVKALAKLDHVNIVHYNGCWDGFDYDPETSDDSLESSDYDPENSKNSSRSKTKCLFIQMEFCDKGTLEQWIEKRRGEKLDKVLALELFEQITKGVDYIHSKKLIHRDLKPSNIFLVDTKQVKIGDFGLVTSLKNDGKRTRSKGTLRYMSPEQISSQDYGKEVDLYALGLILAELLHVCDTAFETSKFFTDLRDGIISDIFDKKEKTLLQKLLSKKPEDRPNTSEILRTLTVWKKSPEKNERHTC
Chain of Phosphatidylinositol 5-phosphate 4-kinase type-2 gamma (Homo sapiens) (Q8TBX8 whole entry): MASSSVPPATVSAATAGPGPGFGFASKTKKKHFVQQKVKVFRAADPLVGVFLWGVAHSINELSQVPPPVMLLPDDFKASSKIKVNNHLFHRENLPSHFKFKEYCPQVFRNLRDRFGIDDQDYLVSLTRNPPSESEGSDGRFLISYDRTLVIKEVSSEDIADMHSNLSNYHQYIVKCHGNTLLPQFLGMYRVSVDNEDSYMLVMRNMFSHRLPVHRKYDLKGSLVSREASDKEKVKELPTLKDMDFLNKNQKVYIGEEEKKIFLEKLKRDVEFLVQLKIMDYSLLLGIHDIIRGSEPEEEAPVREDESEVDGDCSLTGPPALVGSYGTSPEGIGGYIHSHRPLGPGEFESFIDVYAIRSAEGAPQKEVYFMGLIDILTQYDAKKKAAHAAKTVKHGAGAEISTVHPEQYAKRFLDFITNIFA
Chain of Muscarinic acetylcholine receptor M3 (Homo sapiens) (P20309 whole entry, looked up): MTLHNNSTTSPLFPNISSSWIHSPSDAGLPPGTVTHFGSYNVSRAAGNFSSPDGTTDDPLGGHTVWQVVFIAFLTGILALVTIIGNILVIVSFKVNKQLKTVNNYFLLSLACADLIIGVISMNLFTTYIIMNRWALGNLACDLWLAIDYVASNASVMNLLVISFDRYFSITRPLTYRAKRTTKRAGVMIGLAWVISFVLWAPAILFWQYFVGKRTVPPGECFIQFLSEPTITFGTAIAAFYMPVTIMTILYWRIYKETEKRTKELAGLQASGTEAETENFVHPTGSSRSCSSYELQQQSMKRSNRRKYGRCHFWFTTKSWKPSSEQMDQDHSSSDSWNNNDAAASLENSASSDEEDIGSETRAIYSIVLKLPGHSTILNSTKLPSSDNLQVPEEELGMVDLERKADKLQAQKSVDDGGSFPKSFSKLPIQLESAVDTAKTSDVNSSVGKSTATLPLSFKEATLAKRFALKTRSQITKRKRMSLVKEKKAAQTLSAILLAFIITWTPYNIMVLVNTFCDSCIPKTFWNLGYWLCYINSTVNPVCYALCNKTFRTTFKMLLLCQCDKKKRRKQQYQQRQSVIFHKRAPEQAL
Chain of LIM domain kinase 1 (Homo sapiens) (P53667 whole entry, looked up, the tested form may be a part): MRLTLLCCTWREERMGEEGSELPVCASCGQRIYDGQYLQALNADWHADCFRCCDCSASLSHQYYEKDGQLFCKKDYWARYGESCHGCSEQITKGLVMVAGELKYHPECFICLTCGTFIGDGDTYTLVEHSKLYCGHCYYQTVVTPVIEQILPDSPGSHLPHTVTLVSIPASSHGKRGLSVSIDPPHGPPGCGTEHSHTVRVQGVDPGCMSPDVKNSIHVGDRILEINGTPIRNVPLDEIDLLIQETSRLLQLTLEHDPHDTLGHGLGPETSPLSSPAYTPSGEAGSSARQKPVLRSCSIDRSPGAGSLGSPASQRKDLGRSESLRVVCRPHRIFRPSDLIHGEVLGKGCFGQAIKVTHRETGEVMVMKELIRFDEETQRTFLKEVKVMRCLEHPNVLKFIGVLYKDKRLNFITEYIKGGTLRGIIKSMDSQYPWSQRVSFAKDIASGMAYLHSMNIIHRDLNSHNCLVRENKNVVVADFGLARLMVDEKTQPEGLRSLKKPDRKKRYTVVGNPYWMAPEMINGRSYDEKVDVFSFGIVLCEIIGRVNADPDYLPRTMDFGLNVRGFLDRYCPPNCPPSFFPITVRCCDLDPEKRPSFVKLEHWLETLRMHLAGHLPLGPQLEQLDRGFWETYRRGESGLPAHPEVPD
Chain of Cyclin-dependent kinase-like 5 (Homo sapiens) (O76039 whole entry): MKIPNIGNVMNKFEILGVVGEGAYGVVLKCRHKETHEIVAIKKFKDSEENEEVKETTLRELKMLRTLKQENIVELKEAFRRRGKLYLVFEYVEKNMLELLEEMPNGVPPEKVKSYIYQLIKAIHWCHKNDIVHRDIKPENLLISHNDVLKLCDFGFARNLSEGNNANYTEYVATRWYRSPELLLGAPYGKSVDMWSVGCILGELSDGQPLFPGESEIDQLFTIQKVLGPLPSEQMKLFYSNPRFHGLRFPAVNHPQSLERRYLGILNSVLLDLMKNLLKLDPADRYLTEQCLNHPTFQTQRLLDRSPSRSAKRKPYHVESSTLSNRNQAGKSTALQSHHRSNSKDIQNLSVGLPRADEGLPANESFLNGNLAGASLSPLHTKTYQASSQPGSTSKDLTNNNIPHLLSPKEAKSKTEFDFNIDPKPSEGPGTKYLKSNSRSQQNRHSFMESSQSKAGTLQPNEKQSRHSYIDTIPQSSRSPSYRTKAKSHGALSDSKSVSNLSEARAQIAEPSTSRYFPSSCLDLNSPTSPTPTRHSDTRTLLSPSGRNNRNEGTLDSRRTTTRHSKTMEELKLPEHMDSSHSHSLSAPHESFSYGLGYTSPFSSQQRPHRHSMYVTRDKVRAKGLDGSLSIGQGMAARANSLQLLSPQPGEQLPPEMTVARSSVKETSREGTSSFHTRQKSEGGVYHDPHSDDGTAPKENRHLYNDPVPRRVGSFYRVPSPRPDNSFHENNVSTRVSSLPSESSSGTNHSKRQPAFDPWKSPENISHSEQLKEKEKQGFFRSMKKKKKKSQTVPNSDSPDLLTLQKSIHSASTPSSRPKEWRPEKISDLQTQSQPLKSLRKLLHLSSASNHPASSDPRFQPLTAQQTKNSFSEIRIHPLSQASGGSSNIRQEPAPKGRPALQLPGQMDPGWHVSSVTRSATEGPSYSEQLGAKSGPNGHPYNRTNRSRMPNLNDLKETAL
Chain of Phosphatidylinositol 3-kinase catalytic subunit type 3 (Homo sapiens) (Q8NEB9 whole entry): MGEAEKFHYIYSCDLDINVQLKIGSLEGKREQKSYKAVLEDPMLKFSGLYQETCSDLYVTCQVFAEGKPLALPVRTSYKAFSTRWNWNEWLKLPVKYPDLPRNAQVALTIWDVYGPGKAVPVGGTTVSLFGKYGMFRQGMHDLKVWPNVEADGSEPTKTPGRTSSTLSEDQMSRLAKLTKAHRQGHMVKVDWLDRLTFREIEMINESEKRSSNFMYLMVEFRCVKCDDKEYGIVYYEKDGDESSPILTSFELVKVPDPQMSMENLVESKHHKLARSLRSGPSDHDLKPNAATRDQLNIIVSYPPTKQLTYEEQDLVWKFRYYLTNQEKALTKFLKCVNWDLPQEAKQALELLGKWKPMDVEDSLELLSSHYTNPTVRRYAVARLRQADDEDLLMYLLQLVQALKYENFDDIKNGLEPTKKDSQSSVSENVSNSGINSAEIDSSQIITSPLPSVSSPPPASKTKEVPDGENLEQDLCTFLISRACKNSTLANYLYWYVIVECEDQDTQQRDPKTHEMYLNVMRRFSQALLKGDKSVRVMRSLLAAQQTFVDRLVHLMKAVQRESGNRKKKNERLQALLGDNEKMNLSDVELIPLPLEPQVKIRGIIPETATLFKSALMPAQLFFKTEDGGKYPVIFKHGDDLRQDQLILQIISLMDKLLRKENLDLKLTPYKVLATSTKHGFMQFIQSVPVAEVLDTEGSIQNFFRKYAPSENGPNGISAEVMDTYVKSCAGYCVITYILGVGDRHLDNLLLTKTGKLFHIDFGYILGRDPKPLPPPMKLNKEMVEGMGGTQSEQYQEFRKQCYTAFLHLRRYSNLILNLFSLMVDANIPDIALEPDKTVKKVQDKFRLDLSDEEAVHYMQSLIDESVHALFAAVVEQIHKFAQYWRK
Chain of Sigma non-opioid intracellular receptor 1 (Q99720 whole entry): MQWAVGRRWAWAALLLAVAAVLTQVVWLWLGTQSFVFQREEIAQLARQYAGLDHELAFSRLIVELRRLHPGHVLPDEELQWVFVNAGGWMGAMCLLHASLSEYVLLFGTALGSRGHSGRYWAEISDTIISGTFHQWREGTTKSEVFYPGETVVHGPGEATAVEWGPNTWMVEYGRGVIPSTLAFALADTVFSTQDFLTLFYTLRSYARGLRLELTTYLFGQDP

SMILES: Cc1nc(C2CCN(C(=O)c3ccc(OC(F)(F)F)cc3N)CC2)c2ncc(N3CCN(C)CC3)cc2n1 [BAY-693]
- residual activity [1]: 81%
- residual activity [2]: 94%
- residual activity [3]: 93%
- residual activity [4]: 100%
- residual activity [5]: 100%
- residual activity [6]: 90%
- residual activity [7]: 95%
- inhibition [8]: 18.6%
- residual activity [9]: 100%
- residual activity [10]: 95%
- residual activity [11]: 46%
- residual activity [12]: 74%
- residual activity [13]: 100%
- inhibition [14]: 72.7%
- residual activity [15]: 93%
- inhibition [16]: -9.94%
- residual activity [17]: 96%
- inhibition [18]: 20.2%
- residual activity [19]: 82%
- residual activity [20]: 100%
- residual activity [21]: 89%
- residual activity [22]: 93%
- residual activity [23]: 100%
- residual activity [24]: 100%

SMILES: CN1CCN(c2cnc3c(C4CCN(C(=O)c5ccc(OC(F)(F)F)cc5N)CC4)ncnc3c2)CC1 [BAY-885]
- residual activity [1]: 98%
- residual activity [2]: 100%
- residual activity [3]: 100%
- residual activity [4]: 100%
- residual activity [5]: 100%
- residual activity [6]: 99%
- residual activity [7]: 85%
- inhibition [8]: 27.1%
- residual activity [9]: 100%
- residual activity [10]: 100%
- residual activity [11]: 100%
- residual activity [12]: 78%
- residual activity [13]: 100%
- inhibition [14]: 72.4%
- residual activity [15]: 100%
- inhibition [16]: 14.2%
- residual activity [17]: 88%
- inhibition [18]: 16.4%
- residual activity [19]: 80%
- residual activity [20]: 100%
- residual activity [21]: 93%
- residual activity [22]: 88%
- residual activity [23]: 79%
- residual activity [24]: 100%
